These results are taken from patent publication US20090093469A1, “Phenylaminopropanol Derivatives and Methods of Their Use” (WYETH, priority 2004, published 2009).

Structures can show the parent of a compound that is named as a salt.

The target in the first experiment is T1, hNET (Homo sapiens, UniProt P23975).
T1 construct: expressed in transfected cells
T1 sequence (P23975 whole entry): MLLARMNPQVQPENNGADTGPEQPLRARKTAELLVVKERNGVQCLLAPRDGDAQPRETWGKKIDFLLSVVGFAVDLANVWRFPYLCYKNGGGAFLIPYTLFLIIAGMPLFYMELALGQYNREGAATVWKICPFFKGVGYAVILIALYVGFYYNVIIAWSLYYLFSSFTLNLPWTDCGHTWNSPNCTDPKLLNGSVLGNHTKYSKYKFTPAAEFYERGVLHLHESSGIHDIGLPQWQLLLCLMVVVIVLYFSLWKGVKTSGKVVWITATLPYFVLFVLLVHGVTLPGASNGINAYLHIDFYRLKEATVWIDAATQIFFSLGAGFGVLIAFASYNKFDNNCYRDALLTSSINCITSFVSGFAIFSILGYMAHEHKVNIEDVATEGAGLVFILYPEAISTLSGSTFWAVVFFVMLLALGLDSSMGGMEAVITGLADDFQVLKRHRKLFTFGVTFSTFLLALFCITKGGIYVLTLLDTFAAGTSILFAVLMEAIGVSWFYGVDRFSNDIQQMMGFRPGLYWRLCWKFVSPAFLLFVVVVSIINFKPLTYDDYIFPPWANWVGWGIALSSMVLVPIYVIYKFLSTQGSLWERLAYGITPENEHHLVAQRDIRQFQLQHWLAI
Put plainly: Norepinephrine (NE) uptake assay in MDCK-Net6 cells stably transfected with human hNET. In kind it is cell-based. The following applies: MDCK-Net6, read-out: % Inhibition @ 1 μM (hNET).
For orientation: inhibition means the drop in the measured response relative to a control, in per cent. As for `CCn1c(=O)n([C@@H](c2cccc(F)c2)[C@H](O)CNC)c2ccccc21` [Example 199, 1-Ethyl-3-[1-(3-fluoro-phenyl)-2-hydroxy-3-methylamino-propyl]-1,3-dihydro-benzimidazol-2-one hydrochloride], the inhibition at 1 µM was 99.1%.

Consider `CCn1c(=O)n([C@@H](c2ccccc2)[C@H](O)CNC)c2ccccc21` [Example 200, 1-Ethyl-3-[(1S,2R)-2-hydroxy-3-(methylamino)-1-phenylpropyl]-1,3-dihydro-2H-benzimidazol-2-one hydrochloride], for which the inhibition at 1 µM stood at 97.9%.

With `CNC[C@@H](O)[C@H](c1ccccc1)n1c(=O)n(C(C)C)c2cccc(F)c21` [Example 201, 4-Fluoro-3-(2-hydroxy-3-methylamino-1-phenyl-propyl)-1-isopropyl-1,3-dihydro-benzimidazol-2-one hydrochloride], the inhibition at 1 µM worked out at 98.8%.

On to `CNC[C@@H](O)[C@H](c1ccccc1)n1c(=O)n(C2CCCC2)c2ccccc21` [Example 202, 1-Cyclopentyl-3-[(1S,2R)-2-hydroxy-3-(methylamino)-1-phenylpropyl]-1,3-dihydro-2H-benzimidazol-2-one hydrochloride], for which the inhibition at 1 µM turned out to be 92.7%.

Take `CNC[C@@H](O)[C@H](c1ccccc1)n1c(=O)n(C(C)C)c2ccccc21` [Example 203, 1-[(1S,2R)-2-hydroxy-3-(methylamino)-1-phenylpropyl]-3-isopropyl-1,3-dihydro-2H-benzimidazol-2-one hydrochloride]: the inhibition at 1 µM stood at 98.9%.

For `CCNC[C@@H](O)[C@H](c1ccccc1)n1c(=O)n(C(C)C)c2ccc(F)cc21` [Example 204, 3-[(1S,2R)-3-(ethylamino)-2-hydroxy-1-phenylpropyl]-5-fluoro-1-isopropyl-1,3-dihydro-2H-benzimidazol-2-one hydrochloride], the inhibition at 1 µM was determined as 47.4%.

Consider `CNC[C@@H](O)[C@H](c1ccccc1)n1c(=O)n(C)c2ccccc21` [Example 205, 1-[(1S,2R)-2-hydroxy-3-(methylamino)-1-phenylpropyl]-3-methyl-1,3-dihydro-2H-benzimidazol-2-one hydrochloride], for which the inhibition at 1 µM came to 82.9%.

On to `CCn1c(=O)n([C@@H](c2ccccc2)[C@H](O)CNC)c2cc(F)ccc21` [Example 206, 1-Ethyl-5-fluoro-3-[(1S,2R)-2-hydroxy-3-(methylamino)-1-phenylpropyl]-1,3-dihydro-2H-benzimidazol-2-one hydrochloride], for which the inhibition at 1 µM amounted to 96.9%.

Regarding `CCn1c(=O)n([C@@H](c2ccccc2)[C@H](O)CNC)c2c(F)cccc21` [Example 207, 1-Ethyl-4-fluoro-3-[(1S,2R)-2-hydroxy-3-(methylamino)-1-phenylpropyl]-1,3-dihydro-2H-benzimidazol-2-one hydrochloride], the inhibition at 1 µM was 98.3%.

Take `CNC[C@@H](O)[C@H](c1cccc(F)c1)n1c(=O)n(C(C)C)c2cccc(F)c21` [Example 208, 4-fluoro-3-[(1S,2R)-1-(3-fluorophenyl)-2-hydroxy-3-(methylamino)-propyl]-1-isopropyl-1,3-dihydro-2H-benzimidazol-2-one hydrochloride]: the inhibition at 1 µM is 99.8%.

In the case of `CCn1c(=O)n([C@@H](c2cccc(F)c2)[C@H](O)CNC)c2c(F)cccc21` [Example 209, 1-Ethyl-4-fluoro-3-[(1S,2R)-2-hydroxy-3-(methylamino)-1-(3-fluorophenyl)-propyl]-1,3-dihydro-2H-benzimidazol-2-one hydrochloride], the inhibition at 1 µM was 99.3%.

The same experiment, now with this note: test compound 1 μM; [3H]NE uptake, MDCK-Net6 cells; read-out: % Inhibition @ 1 μM (hNET).
`CNC[C@@H](O)[C@H](c1cccc(F)c1)N1C(=O)C(C)(C)c2ccccc21` [Example 210, 1-[(1S,2R)-1-(3-fluorophenyl)-2-hydroxy-3-(methylamino)propyl]-3,3-dimethyl-1,3-dihydro-2H-indol-2-one hydrochloride]: the inhibition at 1 µM was 96.3%.

With `CNC[C@@H](O)[C@H](c1cccc(F)c1)n1cc(-c2cccc(F)c2F)c2ccccc21` [Example 211, (1S,2R)-1-[3-(2,3-difluorophenyl)-1H-indol-1-yl]-1-(3-fluorophenyl)-3-(methylamino)propan-2-ol hydrochloride], the inhibition at 1 µM was determined as 99.8%.

Consider `CNC[C@@H](O)[C@H](c1cccc(F)c1)n1cc(-c2ccccc2Cl)c2ccccc21` [Example 214, (1S,2R)-1-[3-(2-chlorophenyl)-1H-indol-1-yl]-1-(3-fluorophenyl)-3-(methylamino)propan-2-ol hydrochloride], for which the inhibition at 1 µM was 99.9%.
